Structures can show the parent of a compound that is named as a salt.

The target of the test is farnesyl transferase (Homo sapiens, UniProt P49354+P49356). As to the kind of experiment: Farnesyl transferase inhibition, [3H]-farnesylation of biotinylated K-ras C-terminal peptide (SPA assay). The format is biochemical. The following applies: K-Ras substrate; 60 min at 37° C.; mean of two IC50 values; read-out: In vitro inhibitory activity (K-Ras) IC50.
By IC50 is commonly meant the concentration needed to halve the response being measured. For `COc1cccc([C@]23CC[C@H](c4ccccc42)[C@@]2(C(=O)O)CN(C(=O)Cc4ccccc4OC)C[C@@H]32)c1` (relative stereo) [Example 10, (3aRS,4SR,9SR,9aRS)-4,9-ethano-9-(3-methoxyphenyl)-2-[(2-methoxyphenyl)acetyl]-2,3,3a,4,9,9a-hexahydro-1H-benzo[f]isoindole-3a-carboxylic Acid], the IC50 was determined as 0.16 µM.
Consider `C=C(C(=O)N1C[C@H]2[C@@]3(c4ccc(C)cc4)CC[C@H](c4ccccc43)[C@@]2(C(=O)NCc2ccccc2)C1)c1ccccc1OC` (relative stereo) [Example 13, (3aRS,4SR, 9SR,9aRS)-3a-N-benzylcarbamoyl-4,9-ethano-2-[2-(2-methoxyphenyl)propenoyl]-9-(4-methylphenyl)-2,3,3a,4,9,9a-hexahydro-1H-benzo[f]isoindole], for which the IC50 was determined as 0.14 µM.
On to `C=C(C(=O)N1C[C@H]2[C@@]3(c4ccc(C)cc4)CC[C@H](c4ccccc43)[C@@]2(C(=O)NCc2cccnc2)C1)c1ccccc1OC` (relative stereo) [Example 17, (3aRS,4SR,9SR,9aRS)-4,9-ethano-2-[2-(2-methoxyphenyl)propenoyl]-9-(4-methylphenyl)-2,3,3a,4,9,9a-hexahydro-1H-benzo[f]isoindole-3a-N-(3-pyridylmethyl)carboxamide], for which the IC50 amounted to 0.235 µM.
Turning to `C=C(C(=O)N1C[C@H]2[C@@]3(c4ccc(C)cc4)CC[C@H](c4ccccc43)[C@@]2(C(=O)NCc2ccncc2)C1)c1ccccc1OC` (relative stereo) [Example 20, (3aRS,4SR,9SR,9aRS)-4,9-ethano-2-[2-(2-methoxyphenyl)propenoyl]-9-(4-methylphenyl)-2,3,3a,4,9,9a-hexahydro-1H-benzo[f]isoindole-3a-N-(4-pyridylmethyl)carboxamide], the IC50 turned out to be 0.14 µM.
The value for `C=C(C(=O)N1C[C@H]2[C@@]3(c4ccc(C)cc4)CC[C@H](c4ccccc43)[C@@]2(C(=O)NN(C)C)C1)c1ccccc1OC` (relative stereo) [Example 22, (3aRS,4SR,9SR,9aRS)-4,9-ethano-2-[2-(2-methoxyphenyl)propenoyl]-9-(4-methylphenyl)-2,3,3a,4,9,9a-hexahydro-1H-benzo[f]isoindole-3a-N',N'-dimethylcarbohydrazide] was 0.131 µM; that for `C=C(C(=O)N1C[C@H]2[C@@]3(c4ccc(C)cc4)CC[C@H](c4ccccc43)[C@@]2(C(=O)NNc2ccccc2)C1)c1ccccc1OC` (relative stereo) [Example 23, (3aRS,4SR,9SR,9aRS)-4,9-ethano-2-[2-(2-methoxyphenyl)propenoyl]-9-(4-methylphenyl)-2,3,3a,4,9,9a-hexahydro-1H-benzo[f]isoindole-3a-N'-phenylcarbohydrazide] was 0.277 µM; that for `C=C(C(=O)N1C[C@H]2[C@@]3(c4ccc(C)cc4)CC[C@H](c4ccccc43)[C@@]2(C(=O)NN2CCCCC2)C1)c1ccccc1OC` (relative stereo) [Example 24, (3aRS,4SR,9SR,9aRS)-4,9-ethano-2-[2-(2-methoxyphenyl)propenoyl]-9-(4-methylphenyl)-2,3,3a,4,9,9a-hexahydro-1H-benzo[f]isoindole-3a-N',N'-pentamethylenecarbohydrazide] was 0.084 µM.
The value for `C=C(C(=O)N1C[C@H]2[C@@]3(c4ccc(C)cc4)CC[C@H](c4ccccc43)[C@@]2(C(=O)NCc2ccc[n+]([O-])c2)C1)c1ccccc1OC` (relative stereo) [Example 26, (3aRS,4SR,9SR,9aRS)-4,9-ethano-2-[2-(2-methoxyphenyl)-propenoyl]-9-(4-methylphenyl)-2,3,3a,4,9,9a-hexahydro-1H-benzo[f]isoindole-3a-N-(N-oxo-3-pyridyl)methylcarboxamide] was 0.145 µM; that for `C=C(C(=O)N1C[C@H]2[C@@]3(c4ccc(C)cc4)CC[C@H](c4ccccc43)[C@@]2(C(=O)NNc2ccc(OC)cc2)C1)c1ccccc1OC` (relative stereo) [Example 27, (3aRS,4SR,9SR,9aRS)-4,9-ethano-2-[2-(2-methoxyphenyl)propenoyl]-9-(4-methylphenyl)-2,3,3a,4,9,9a-hexahydro-1H-benzo[f]isoindole-3a-N'-(4-methoxyphenyl)carbohydrazide] was 0.009 µM.
With `C=C(C(=O)N1C[C@H]2[C@@]3(c4ccc(C)cc4)CC[C@H](c4ccccc43)[C@@]2(C(=O)NN(C)c2ccccc2)C1)c1ccccc1OC` (relative stereo) [Example 28, (3aRS,4SR,9SR,9aRS)-4,9-ethano-2-[2-(2-methoxyphenyl)propenoyl]-9-(4-methylphenyl)-2,3,3a,4,9,9a-hexahydro-1H-benzo[f]isoindole-3a-N'-methyl-N'-phenylcarbohydrazide] the figure was 0.054 µM; with `C=C(C(=O)N1C[C@H]2[C@@]3(c4ccc(C)cc4)CC[C@H](c4ccccc43)[C@@]2(C(=O)NNc2ccccc2C)C1)c1ccccc1OC` (relative stereo) [Example 29, (3aRS,4SR,9SR,9aRS)-4,9-ethano-2-[2-(2-methoxyphenyl)propenoyl]-9-(4-methylphenyl)-2,3,3a,4,9,9a-hexahydro-1H-benzo[f]isoindole-3a-N'-(2-methylphenyl)carbohydrazide], 0.14 µM.
`C=C(C(=O)N1C[C@H]2[C@@]3(c4ccc5c(c4)OCCO5)CC[C@H](c4ccccc43)[C@@]2(C(=O)NCc2cccnc2)C1)c1ccccc1OC` (relative stereo) [Example 33, (3aRS,4SR,9SR,9aRS)-9-(2,3-dihydro-1,4-benzodioxin-6-yl)-4,9-ethano-2-[2-(2-methoxyphenyl)propenoyl]-2,3,3a,4,9,9a-hexahydro-1H-benzo[f]isoindole-3a-N-(3-pyridylmethyl)carboxamide]: the IC50 worked out at 0.242 µM.
For `C=C(C(=O)N1C[C@@H]2[C@]3(c4ccc5c(c4)OCCO5)CC[C@@H](c4ccccc43)[C@]2(C(=O)NCc2cccs2)C1)c1ccccc1OC` (relative stereo) [Example 36, (3aRS,4SR,9SR,9aRS)-9-(2,3-dihydro-1,4-benzodioxin-6-yl)-4,9-ethano-2-[2-(2-methoxyphenyl)propenoyl]-2,3,3a,4,9,9a-hexahydro-1H-benzo[f]isoindole-3a-N-(2-thienylmethyl)carboxamide], the half-inhibitory concentration (IC50) was determined as 0.12 µM.
With `C=C(C(=O)N1C[C@@H]2[C@]3(c4ccc(C(F)(F)F)cc4)CC[C@@H](c4ccccc43)[C@]2(C(=O)NCc2cccnc2)C1)c1ccccc1OC` (relative stereo) [Example 42, (3aRS,4SR,9SR,9aRS)-4,9-ethano-2-[2-(2-methoxyphenyl)propenoyl]-9-[4-(trifluoromethyl)phenyl]-2,3,3a,4,9,9a-hexahydro-1H-benzo[f]isoindole-3a-N-(3-pyridylmethyl)carboxamide] the figure was 0.083 µM; with `C=C(C(=O)N1C[C@@H]2[C@]3(c4ccc(C(F)(F)F)cc4)CC[C@@H](c4ccccc43)[C@]2(C(=O)NNC(=O)c2ccccc2)C1)c1ccccc1OC` (relative stereo) [Example 43, (3aRS,4SR,9SR,9aRS)-4,9-ethano-2-[2-(2-methoxyphenyl)propenoyl]-9-[4-(trifluoromethyl)phenyl]-2,3,3a,4,9,9a-hexahydro-1H-benzo[f]isoindole-3a-N'-benzoylcarbohydrazide], 0.59 µM; with `C=C(C(=O)N1C[C@@H]2[C@]3(c4ccc(C(F)(F)F)cc4)CC[C@@H](c4ccccc43)[C@]2(C(=O)NNc2ccccc2)C1)c1ccccc1OC` (relative stereo) [Example 44, (3aRS,4SR,9SR,9aRS)-4,9-ethano-2-[2-(2-methoxyphenyl)propenoyl]-9-[4-(trifluoromethyl)phenyl]-2,3,3a,4,9,9a-hexahydro-1H-benzo[f]isoindole-3a-N'-phenylcarbohydrazide], 0.369 µM.
The value for `C=C(C(=O)N1C[C@@H]2[C@]3(c4ccc5ccccc5c4)CC[C@@H](c4ccccc43)[C@]2(C(=O)O)C1)c1ccccc1OC` (relative stereo) [Example 46, sodium salt of (3aRS,4SR,9SR,9aRS)-4,9-ethano-2-[2-(2-methoxyphenyl)propenoyl]-9-(2-naphthyl)-2,3,3a,4,9,9a-hexahydro-1H-benzo[f]isoindole-3a-carboxylic Acid] was 0.132 µM.
The value for `C=C(C(=O)N1C[C@@H]2[C@]3(c4ccc5c(c4)CCO5)CC[C@@H](c4ccccc43)[C@]2(C(=O)NCc2cccnc2)C1)c1ccccc1OC` (relative stereo) [Example 63, (3aRS,4SR,9SR,9aRS)-9-(2,3-dihydrobenzofuran-5-yl)-4,9-ethano-2-[2-(2-methoxyphenyl)propenoyl]-2,3,3a,4,9,9a-hexahydro-1H-benzo[f]isoindole-3a-N-(3-pyridylmethyl)carboxamide] was less than 0.02 µM; that for `C=C(C(=O)N1C[C@H]2[C@@]3(c4ccc(OC)cc4)CC[C@H](c4ccccc43)[C@@]2(C(=O)NCc2cccnc2)C1)c1ccccc1OC` (relative stereo) [Example 76, (3aRS,4SR,9SR,9aRS)-4,9-ethano-9-(4-methoxyphenyl)-2-[2-(2-methoxyphenyl)propenoyl]-2,3,3a,4,9,9a-hexahydro-1H-benzo[f]isoindole-3a-N-(3-pyridylmethyl)carboxamide] was 0.244 µM; that for `C=C(C(=O)N1C[C@H]2[C@@]3(c4ccc(OC)cc4)CC[C@H](c4ccccc43)[C@@]2(C(=O)NNc2ccccc2)C1)c1ccccc1OC` (relative stereo) [Example 77, (3aRS,4SR,9SR,9aRS)-4,9-ethano-9-(4-methoxyphenyl)-2-[2-(2-methoxyphenyl)propenoyl]-2,3,3a,4,9,9a-hexahydro-1H-benzo[f]isoindole-3a-N'-phenylcarbohydrazide] was 0.204 µM.
Take `C=C(C(=O)N1C[C@H]2[C@@]3(c4ccc(OC)cc4)CC[C@H](c4ccccc43)[C@@]2(C(=O)NNc2cccnc2)C1)c1ccccc1OC` (relative stereo) [Example 79, (3aRS,4SR,9SR,9aRS)-4,9-ethano-9-(4-methoxyphenyl)-2-[2-(2-methoxyphenyl)propenoyl]-2,3,3a,4,9,9a-hexahydro-1H-benzo[f]isoindole-3a-N'-(3-pyridyl)carbohydrazide]: the IC50 turned out to be 0.045 µM.
